Experimental data: US12065408B2, “Benzaldehyde compounds with direct polymer destabilizing effects to treat sickle cell disease” (VIRGINIA COMMONWEALTH UNIVERSITY, priority 2022, dated 2024)

Columns and labels:
RBC sickling [1] = assay: Sickle inhibition in SS blood suspensions under hypoxia (2.5% oxygen); format: cell-based; settings: Homo sapiens, 2 mM compound, homozygous SCD blood, 4 biological replicates
Protocol: All compounds (Comp 1-13) and comparator molecules (VZHE-039, PP-14, INN-310, and Voxelotor) were evaluated following established procedures. Blood samples from individual donors with homozygous SCD (obtained with informed consent) were diluted using Hemox buffer solution with the addition of glucose (10 mM) and BSA (0.2%) to adjust hematocrit of the blood suspensions to 20%, which standardizes the procedure to normalize the ratio of RBCs to drug, for assay consistency and reproducibility. Briefly, blood suspensions were incubated under room air in the presence of various concentrations of test compounds (0-2 mM) at 37° ° C. for 1 hour in 96-well round bottom plates. Subsequently, the suspensions were incubated with a hypoxic gas mixture (2.5% Oxygen gas/balance Nitrogen gas) at 37° C. for up to 2 hours prior to fixation with 2% glutaraldehyde solution without exposure to air. The fixated blood aliquots were evaluated by microscopic morphological analysis (image analysis on Image J software) to identify the proportion of sickled and non-sickled RBCs, and sickle inhibition calculated based on the % change from negative control (DMSO).

RBC sickling [2] = assay: Oxygen-independent sickle inhibition in SS blood suspensions under anoxia (100% nitrogen); format: cell-based, human; settings: for inhibition at 2000 µM: Homo sapiens, 2 mM compound, homozygous SCD blood, 4 biological replicates; for inhibition at 2000 µM / polymer destabilizing effects (sickle inhibition in anoxia), in words: anoxia; for polymer destabilizing effects in anoxia time-course experiments, in words: up to 2.5 h
Protocol: To establish oxygen-independent sickle inhibition, the incubation chamber was subsequently opened and exposed to room air for 15 minutes to ensure complete re-oxygenation and reversal of the sickled cells to normal round cells. Reversal was confirmed by microscopy. The incubation chamber was then closed, and the assay was repeated with incubation in 100% nitrogen gas for 1 hour (for screening), or up to 2.5 h (for time-course studies), with collection and fixation of blood aliquots at defined intervals. Aliquot samples were again subjected to microscopic morphological analysis of bright field images to identify the proportion of sickled and non-sickled cells, and sickle inhibition calculated.

[3] = Single-dose oral pharmacokinetics in rats; format: in vivo, rat
Protocol: Single-dose pharmacokinetics (PK) in male Sprague Dawley (SD) rats (n=4) were assessed for each compound, and the maximum or peak whole blood concentration and area under the curve are shown in Table 5.
Single doses of each compound were administered as oral suspensions by gavage in 0.5% carboxy methylcellulose at 100 mg/kg. Whole blood levels were collected for at least 72 hours after dose administration. Bioanalyses were performed with liquid chromatography-tandem mass spectrometry […].

[4] = 14-day repeat-dose safety (clinical observations, histopathology) in rats; format: in vivo, rat; settings: 100 mg/kg oral once daily for 14 days
Protocol: (§1) Repeat oral doses of each compound were administered by oral gavage for 14 days to male and female SD rats (n=3). […] Steady state exposures for the final dosing interval on Day 14 were similar to total compound exposure from single-dose PK.
(§2) Repeat doses of each compound were administered once daily as oral suspensions by gavage in 0.5% carboxy methylcellulose for 14 days at 100 mg/kg. Whole blood was collected at 7 time-points for up to 24 hours during the final dosing interval on Day 14. Clinical observations, body weights, and food consumption were recorded throughout the 14 day study. Clinical chemistry and hematologic parameters were assessed, and histopathology was performed on organs after 14 days of exposure to study drug.

Hb = target: T1, Hb (Homo sapiens, UniProt P69905); assay: Occupancy/dose-dependent p50 shift in human non-sickle blood; format: cell-based; settings: compared to Voxelotor at equivalent drug-Hb occupancy levels
T1 construct: Hemoglobin modification, studies using non-sickling AA blood; from tissue; host or cells: non-sickling AA blood (red cells)
T1 sequence (P69905 2-142 limits assumed): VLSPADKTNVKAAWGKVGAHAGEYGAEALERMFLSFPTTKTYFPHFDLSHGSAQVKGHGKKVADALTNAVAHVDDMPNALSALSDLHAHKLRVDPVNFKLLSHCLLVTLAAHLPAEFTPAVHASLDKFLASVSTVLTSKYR
T1 sequence (P68871 2-147 partner limits assumed): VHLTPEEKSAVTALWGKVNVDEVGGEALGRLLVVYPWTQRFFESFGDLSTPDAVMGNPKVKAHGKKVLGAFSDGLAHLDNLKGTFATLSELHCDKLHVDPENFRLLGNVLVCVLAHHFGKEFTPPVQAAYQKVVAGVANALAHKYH
Protocol: Non-sickling human blood was incubated with test compounds at 0.25-2 mM concentrations at 37 °C for 1 hour in 96-well round bottom plates. At conclusion, RBCs were washed once with PBS, followed by lysis with deionized water. Approximately 100 μl aliquots of individual lysates were added to 3 mL of 0.1M potassium phosphate buffer, pH 7.0 in a cuvette and subjected to hemoximetry analysis using a Hemox™ Analyzer (TCS Scientific Corp.) as previously described. Change in p50 values (Δp50) was calculated by subtracting the p50 values of treated samples from the value of the control sample and expressing the difference as a percentage of control p50 values.

[5] = ADME properties / oral bioavailability; settings: in vivo
[6] = 14-day repeat-dose oral pharmacokinetics in rats; format: in vivo, rat; settings: 14-day repeat oral doses
Protocol: as §1, §2

Row | changes in p50 of Hb in human blood (Hb) | absorption, distribution, metabolism and elimination (ADME) properties [5] | Compound | inhibition at 2000 µM (RBC sickling [1]) | inhibition at 2000 µM (RBC sickling [2]) | polymer destabilizing effects (sickle inhibition in anoxia), in words (RBC sickling [2]) | polymer destabilizing effects in anoxia time-course experiments, in words (RBC sickling [2]) | oral exposure levels, single dose, in words [3] | clinical and histopathologic changes after 14 days of exposure [4] | oral exposure levels, repeat dose, in words [6]
1 | relatively weak changes in p50 | acceptable | O=Cc1c(O)cccc1OCc1cccnc1 [Comp 1, 2-hydroxy-6-(pyridin-3-ylmethoxy)benzaldehyde] | 74.8 ± 15.9% | 71.9 ± 16% | most potent polymer destabilizers discovered to date | most potent and sustained polymer destabilizing effects observed to date | greatest oral exposure levels observed to date | No clinical or histopathologic changes | 
2 | relatively weak changes in p50 | acceptable | O=Cc1c(O)cccc1OCc1ccccn1 [Comp 2, 2-hydroxy-6-(pyridin-2-ylmethoxy)benzaldehyde] | 72.8 ± 13% | 63.2 ± 17.2% | most potent polymer destabilizers discovered to date | most potent and sustained polymer destabilizing effects observed to date | greatest oral exposure levels observed to date | No clinical or histopathologic changes | greatest oral exposure levels observed to date
3 |  |  | O=Cc1c(O)cccc1OCc1ccncc1 [Comp 3, 2-hydroxy-6-(pyridin-4-ylmethoxy)benzaldehyde] | 54.1 ± 14.7% | 26.2 ± 8.6% |  |  |  |  | 
4 |  |  | O=Cc1c(O)cccc1OCc1cncc(F)c1 [Comp 4, 2-((5-fluoropyridin-3-yl)methoxy)-6-hydroxybenzaldehyde] | 64.3 ± 24.5% | 69.6 ± 13.4% |  |  |  |  | 
5 | relatively weak changes in p50 | acceptable | O=Cc1c(O)cccc1OCc1ncccc1F [Comp 5, 2-((3-fluoropyridin-2-yl)methoxy)-6-hydroxybenzaldehyde] | 66.6 ± 9.4% | 66.5 ± 21.1% |  |  | greatest oral exposure levels observed to date | No clinical or histopathologic changes | greatest oral exposure levels observed to date
6 |  |  | O=Cc1c(O)cccc1OCc1cccnc1F [Comp 6, 2-((2-fluoropyridin-3-yl)methoxy)-6-hydroxybenzaldehyde] | 67.1 ± 5.8% | 32.6 ± 28.5% |  |  |  |  | 
7 |  |  | O=Cc1c(O)cccc1OCc1cccnc1Cl [Comp 7, 2-((2-chloropyridin-3-yl)methoxy)-6-hydroxybenzaldehyde] | 36.1 ± 19.7% | 9.4 ± 10.7% |  |  |  |  | 
8 |  |  | O=Cc1c(O)cccc1OCc1ncccc1Cl [Comp 8, 2-((3-chloropyridin-2-yl)methoxy)-6-hydroxybenzaldehyde] | 69.7 ± 8% | 18.3 ± 8.4% |  |  |  |  | 
9 |  |  | O=Cc1c(F)cc(F)cc1OCc1ccccn1 [Comp 9, 2,4-difluoro-6-(pyridin-2-ylmethoxy)benzaldehyde] | 68.1 ± 29.8% | 0% | completely negates the polymer destabilization effects |  |  |  | 
10 |  |  | O=Cc1c(O)cccc1OCc1cncnc1 [Comp 10, 2-hydroxy-6-(pyrimidin-5-ylmethoxy)benzaldehyde] | 76.6 ± 10.9% | 75.6 ± 18.5% |  |  |  |  | 
11 |  |  | O=Cc1c(O)cccc1OCc1ncccn1 [Comp 11, 2-hydroxy-6-(pyrimidin-2-ylmethoxy)benzaldehyde] | 67.4 ± 18.2% | 45.1 ± 10.8% |  |  |  |  | 
12 |  |  | O=Cc1c(OCc2cccnc2)ccc(F)c1O [Comp 12, 3-fluoro-2-hydroxy-6-(pyridin-3-ylmethoxy)benzaldehyde] | 68.6 ± 12% | 28.7 ± 6.9% | significantly reduced the potency of polymer inhibition |  |  |  | 
13 |  |  | O=Cc1c(F)cc(F)cc1OCc1ncccc1F [Comp 13, 2,4-difluoro-6-((3-fluoropyridin-2-yl)methoxy)benzaldehyde] | 63.6 ± 24.3% | -0.5 ± 2.7% | completely negates the polymer destabilization effects |  |  |  | 
14 |  |  | COc1ccc(OCc2ccccn2)c(C=O)c1 [INN-310, reference compound] | 69.9 ± 20% | 17.9 ± 7% | only weak potency in anoxia |  |  |  | 
15 |  |  | O=Cc1c(O)cccc1OCc1ccccc1 [Reference A, 2-(benzyloxy)-6-hydroxybenzaldehyde, reference compound] |  |  | potent polymer destabilizing effects |  |  |  | 
16 |  |  | COc1ccc(OCc2cccc(CO)n2)c(C=O)c1 [TD-7, reference compound] | 80.6 ± 5.8% | 20.4 ± 2.9% |  |  |  |  | 
17 |  |  | O=Cc1c(O)cccc1OCc1cccc(CO)n1 [VZHE-039, reference compound] | 75.3 ± 14.3% | 68.9 ± 17.7% |  |  |  | Both clinical and histopathologic changes in the liver, including hepatocyte necrosis | 
18 |  |  | CC(C)n1nccc1-c1ncccc1COc1cccc(O)c1C=O [Voxelotor, reference compound] | 79.9 ± 6.2% | 1.5 ± 5.5% | did not demonstrate any sickle inhibition in anoxic conditions |  |  |  | 
